Test system: HIV-1 cell line, CEMIIIB
Assay: Long term in vitro study, CEMIIIB cells, reverse transcriptase analysis
Assay type: cell-based
Design: Reverse transcriptase data: unit not given here
Experimental: A microtiter-based reveres transcriptase (RT) reaction is utilized (Buckheit et al (1991) AIDS Research and Human Retroviruses 7:295-302). Tritiated thymidine triphosphate (NEN)(TTP) is resuspended in distilled water at 5 Ci/ml. Poly rA and oligo dT are prepared as a stock solution which is kept at -20° C. The RT reaction buffer is prepared fresh on a daily basis and consists of 125 μl 1M EGTA, 125 μl water, 125 μl Triton X-100, 50 μl Tris (pH 7.4), 50 μl MDDT, and 40 μl 1M MgCl2. These three solutions are mixed together in a ratio of 1 part TTP, 2.5 parts poly rA:oligo dT, 2.5 parts reaction buffer and 4 parts distilled water. Ten microliters of this reaction mixture is placed in a round bottom microtiter place and 15 μl of virus containing supernatant is added and mixed. The plate is incubated at 37° C. and incubated for 60 minutes. Following reaction, the reaction volume is spotted onto filter mats, washed 6 times for 5 minutes each in a 5% sodium phosphate buffer, 2 times for 1 minute each in distilled water, 2 times for 1 minute each in 70% ethanol, and then dried. The dried filter mat is placed in a plastic sample bag, Betaplate scintillation fluid is added and the bag is heat sealed. Incorporated radioactivity is quantified utilizing a Wallac Microbeta scintillation counter.
Acute infection of most established human cell lines with HIV- I results in the eventual establishment of a constitutive virus-producing chronically infected cell line. The cells can be passaged for long periods of time in culture without loss of virus production. These cells may be utilized to evaluate the effects of anti-HIV compounds on syncytium formation or to evaluate the effects of anti-HIV compounds on levels of virus production from these cells. […] Each of the cells contains an integrated HIV genome or provirus. Chronically infected CEM, H9 and U937 cell lines have been prepared and cultured by Southern Research Institute, Frederick Md. and are available from them.
CEM-SS cells chronically infected with HIV isolate, for example SKI (CEM-SKI) are cultured in RPM1640 tissue culture medium supplemented with 10% fetal bovine serum and antibiotics. Selection is performed by culturing the cells in the presence of the compound to be tested in T25 flasks. CEM-SKI or other infected cells with no added drug are used as the control cells. Cells are allowed to grow to a density of approximately 1×10^6 cells/ml and are then passaged at a 1:10 dilution. After a period of time, usually one week intervals of drug treatment, cells are evaluated to determine if the inhibitory activity of the compound has been affected by treatment of the cells with either compounds. The drug concentration in the flask is then increased two-fold and the cells maintained as above.
The cell populations contain integrated copies of the HIV genome and constitutively produce HIV at relatively high levels or are latently infected and only produce virus after stimulation with phorbol esters, tumor necrosis factor or IL6(U1 and ACH2). Reductions in virus products were observed when quantifying supernatant reverse transcriptase activity,
Toxicity Values are measured by XTT and activity of the compound in the tests is measured by a Reverse Transcriptase analysis.
A long term in vitro study of 3-hexahydro-3-ethyl-1-methyl-2-oxo-1H-azepin-3-yl)phenyl ester of 4-chlorophenyl carbamic acid against an HIV-1 cell line, CEMIIIB was conducted at three different levels. The results with CEIIIB cells were reported at weekly intervals. The CEMIIIB is a […] of the CEMSS cell line and is a chronic HIV cell line.

## CCC1(c2cccc(OC(=O)Nc3ccc(Cl)cc3)c2)CCCCN(C)C1=O (stereo not shown) [(4-chlorophenyl)-carbamic acid, 3-(hexahydro-3-ethyl-1-methyl-2-oxo-1H-azepin-3-yl) 2 phenyl ester]
  Reverse transcriptase data, continued test: data remained consistent
7 μg/ml, Day 4
  Reverse transcriptase data: 1643
7 μg/ml, Day 11
  Reverse transcriptase data: 1294
7 μg/ml, Day 18
  Reverse transcriptase data: 1521
7 μg/ml, Day 25
  Reverse transcriptase data: 1725
7 μg/ml, Day 32
  Reverse transcriptase data: 1239
7 μg/ml, Day 39
  Reverse transcriptase data: 1341
7 μg/ml, Day 46
  Reverse transcriptase data: 1694
7 μg/ml, Day 53
  Reverse transcriptase data: 1287
7 μg/ml, Day 60
  Reverse transcriptase data: 1631
7 μg/ml, Day 67
  Reverse transcriptase data: 1245
7 μg/ml, Day 71
  Reverse transcriptase data: 1483
7 μg/ml, Day 74
  Reverse transcriptase data: 1502
7 μg/ml, Day 88
  Reverse transcriptase data: 7383
7 μg/ml, Day 95
  Reverse transcriptase data: 5512
7 μg/ml, Day 102
  Reverse transcriptase data: 8512
7 μg/ml, Day 109
  Reverse transcriptase data: 58104
15 μg/ml, Day 4
  Reverse transcriptase data: 1526
15 μg/ml, Day 11
  Reverse transcriptase data: 1168
15 μg/ml, Day 18
  Reverse transcriptase data: 1241
15 μg/ml, Day 25
  Reverse transcriptase data: 1361
15 μg/ml, Day 32
  Reverse transcriptase data: 1168
15 μg/ml, Day 39
  Reverse transcriptase data: 1162
15 μg/ml, Day 46
  Reverse transcriptase data: 1084
15 μg/ml, Day 53
  Reverse transcriptase data: 902
15 μg/ml, Day 60
  Reverse transcriptase data: 1310
15 μg/ml, Day 67
  Reverse transcriptase data: 1093
15 μg/ml, Day 71
  Reverse transcriptase data: 1056
15 μg/ml, Day 74
  Reverse transcriptase data: 763
15 μg/ml, Day 88
  Reverse transcriptase data: 4415
15 μg/ml, Day 95
  Reverse transcriptase data: 3205
15 μg/ml, Day 102
  Reverse transcriptase data: 6902
15 μg/ml, Day 109
  Reverse transcriptase data: 60170
30 μg/ml, Day 4
  Reverse transcriptase data: 602
30 μg/ml, Day 11
  Reverse transcriptase data: 265
30 μg/ml, Day 18
  Reverse transcriptase data: 581
30 μg/ml, Day 25
  Reverse transcriptase data: 496
30 μg/ml, Day 32
  Reverse transcriptase data: 268
30 μg/ml, Day 39
  Reverse transcriptase data: 381
30 μg/ml, Day 46
  Reverse transcriptase data: 562
30 μg/ml, Day 53
  Reverse transcriptase data: 308
30 μg/ml, Day 60
  Reverse transcriptase data: 241
30 μg/ml, Day 67
  Reverse transcriptase data: 301
30 μg/ml, Day 71
  Reverse transcriptase data: 321
30 μg/ml, Day 74
  Reverse transcriptase data: 202
30 μg/ml, Day 88
  Reverse transcriptase data: 370
30 μg/ml, Day 95
  Reverse transcriptase data: 299
30 μg/ml, Day 102
  Reverse transcriptase data: 928
30 μg/ml, Day 109
  Reverse transcriptase data: 2019
